Data set [1] concerns HIV-1 HXBc2 virus bearing HR1 double mutations V38A/N42T and V38E/N42S. The data set can be described thus: HIV-1 infectivity assay, enfuvirtide-resistant HR1 double mutants. Format: cell-based. As for the experimental part:
HIV-1 infectivity assays were performed using known methods (Madani et al., 2007 Inhibition of human immunodeficiency virus envelope glycoprotein-mediated single cell lysis by low-molecular-weight antagonists of viral entry. J Virol, 81: 532-538; and Si et al., 2001 Envelope glycoprotein determinants of neutralization resistance in a simian-human immunodeficiency virus (SHIV-HXBc2P 3.2) derived by passage in monkeys. J Virol, 75:4208-4218; both incorporated herein by reference). […] Virus-containing supernatants were harvested 24-30 hr after transfection, filtered, aliquoted, and stored at −80° C. Target cells were seeded at a density of 6×10^3 cells/well in 96-well plates 24 hours prior to infection. Cf2Th-CD4-CCR5 cells were used for infections by viruses with the ADA, YU2, and A-MLV envelope glycoproteins, and Cf2Th-CD4-CXCR4 cells used for HXBc2, HXBc2P 3.2, and A-MLV. On the day of infection, the structured peptides (0-3 μM) were added to recombinant viruses (10,000 RT units) to a final volume of 50 μL and incubated at 37° C. for 30 min. Media was then removed and the target cells incubated with virus-peptide mixture for 48 hours at 37° C. The media was again removed and the cells lysed with 30 μL of passive lysis buffer (Promega) and three freeze-thaw cycles.

Another data set deals with T1, chymotrypsin (Bos taurus, UniProt P00766).
T1 construct: purchased Sigma
The data set can be described thus: Protease resistance assay, chymotrypsin (LC/MS). Format: in vitro ADME. Conditions: pH 7.4, 0.5 chymotrypsin, peptide 25 μM.

Data set [2] in a line: Circular dichroism, α-helical content. The class given is physicochemical. To be noted: pH 2 versus pH 7. In short, it runs like this: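 Far-UV CD spectra recorded at 20° C, 190-260 nm, 0.1 cm path, 10 accumulations. Percent α-helicity from mean residue ellipticity at 222 nm: 100×[θ]222/max[θ]222, with max[θ]222=−40,000×[1−(2.5/number of residues)]. Secondary-structure fractions also estimated by CDNN curve-fitting.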

Another data set in a line: Chymotrypsin, pH 7. The text has this: Table printed on a drawing sheet, FIG. 17C
Title: Chymotrypsin, pH 7
First reader's note: The table also serves as the legend of the plot of fraction intact over time; the line and marker symbols are left out.

The test system of the next data set is pepsin. The data set can be described thus: Protease resistance assay, pepsin at pH 2. An outline of the steps: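 Peptide from a 1 mM DMSO stock was incubated with pepsin in its appropriate buffer. Intact peptide was quantified over time by serial LC-MS injections, normalized to a 100 μM acetylated tryptophan carboxamide internal standard. Half-life came from nonlinear regression of the exponential decay.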

The record followed here is patent US10273290B2, “Hydrocarbon double-stapled stabilized HIV-1 GP41 heptad repeat domain peptides” (DANA-FARBER CANCER INSTITUTE, INC., priority 2009, dated 2019).

Bridge positions count the residues as written; N and C are the ends. Square brackets hold non-standard residues; d marks the D form. Peptide text beside a SMILES is read from it. S5 = C=CCCC[C@](C)(N)C(=O)O; Nle = CCCC[C@H](N)C(=O)O

Consider `CCCC[C@H](NC(C)=O)C(=O)N[C@H](C(=O)N[C@@H](Cc1c[nH]c2ccccc12)C(=O)N[C@@]1(C)CCCC=CCCC[C@@](C)(C(=O)N[C@@H](CCC(=O)O)C(=O)N[C@H](C(=O)N[C@@H](CC(N)=O)C(=O)N[C@@H](CC(N)=O)C(=O)N[C@@H](Cc2ccc(O)cc2)C(=O)N[C@H](C(=O)N[C@@H](CO)C(=O)N[C@@H](CC(C)C)C(=O)N[C@H](C(=O)N[C@@H](Cc2c[nH]cn2)C(=O)N[C@@H](CO)C(=O)N[C@@H](CC(C)C)C(=O)N[C@H](C(=O)N[C@@H](CCC(=O)O)C(=O)N[C@@H](CCC(=O)O)C(=O)N[C@@H](CO)C(=O)N[C@@H](CCC(N)=O)C(=O)N[C@@H](CC(N)=O)C(=O)N[C@@H](CCC(N)=O)C(=O)N[C@@]2(C)CCCC=CCCC[C@@](C)(C(=O)N[C@@H](CCC(N)=O)C(=O)N[C@@H](CCC(=O)O)C(=O)N[C@@H](CC(C)C)C(=O)N[C@@H](CC(C)C)C(=O)N[C@@H](CCC(=O)O)C(N)=O)NC(=O)[C@H](CC(N)=O)NC(=O)[C@H](CCCCN)NC(=O)[C@H](CCC(=O)O)NC2=O)[C@@H](C)CC)[C@@H](C)CC)[C@@H](C)O)[C@@H](C)CC)NC(=O)[C@H](CC(=O)O)NC(=O)[C@H](Cc2c[nH]c3ccccc23)NC(=O)[C@H](CCC(=O)O)NC1=O)[C@@H](C)O` [SAH-gp41(626-662)(A, F)] (Ac-[Nle]TW[S5]EWD[S5]EINNYTSLIHSLIEESQNQ[S5]EKN[S5]QELLE-NH2; staple 4-8, 28-32; N-terminus and C-terminus assumed), for which the “functional activity against HR1 double-mutant HIV-1, in words” value in data set [1] is “dose-responsively suppressed HIV-1 infectivity”. Moreover, the Half-Life at chymotrypsin was 5.02 h; in the data set “Chymotrypsin, pH 7”, 5.58 h. The “α-helicity, in words” value in data set [2] is “even greater α-helicity at pH 2 than at pH 7”. Besides, the half-life at 25 μM in the data set with pepsin (pepsin (isolated protease) in buffer, pH 2) amounted to 34 h. Besides, the “acid protease resistance, in words” value in the data set with pepsin (pepsin at pH 2) was “striking acid protease resistance”.

As usually defined, the half-life is the time needed for the level to fall by half in the phase considered. A high value points to slow loss.
